The values below come from patent publication US12534748B2, “Engineered beta-subunit of tryptophan synthase for production of non-canonical amino acids” (California Institute of Technology, priority 2015, dated 2026).

A word on the kcat: it is the maximal rate divided by the concentration of active sites. By Km is commonly meant the concentration of substrate that gives half-maximal velocity.

The target in assay [1] is T1, Thermotoga maritima TrpB variant TmTrpB^triple (P19G, I69V, T292S), SEQ ID NO: 34 (Thermotoga maritima, UniProt P50909, I69V/P19G/T292S).
T1 sequence (P50909 with tags, fused parts or gaps P19G/I69V/T292S): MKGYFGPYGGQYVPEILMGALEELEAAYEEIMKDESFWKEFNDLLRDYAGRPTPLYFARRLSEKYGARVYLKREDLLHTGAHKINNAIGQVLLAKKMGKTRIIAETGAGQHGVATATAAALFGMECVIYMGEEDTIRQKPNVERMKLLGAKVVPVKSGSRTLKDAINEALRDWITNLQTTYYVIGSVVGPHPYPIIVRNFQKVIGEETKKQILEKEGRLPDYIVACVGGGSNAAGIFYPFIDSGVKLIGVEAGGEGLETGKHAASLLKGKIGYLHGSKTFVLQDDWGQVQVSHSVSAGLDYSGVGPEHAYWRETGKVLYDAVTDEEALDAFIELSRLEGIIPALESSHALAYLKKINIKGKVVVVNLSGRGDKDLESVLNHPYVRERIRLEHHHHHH
Put plainly: Tryptophan formation from L-serine and indole, kinetics of TmTrpB^triple. In kind it is biochemical. As for the experimental part: Kinetics and UV-Vis Spectroscopy. Data were collected between 550 and 250 nm on a UV1800 Shimadzu spectrophotometer (Shimadzu) using 0.25-20 μM of enzyme in 200 mM potassium phosphate (pH 8.0) in a quartz cuvette. Samples were incubated at 75° C. for >3 min to ensure a stable temperature was reached. PfTrpB activity (kcat) was measured by monitoring tryptophan formation at 290 nm using Δe290=1.89 mM^−1·cm^−1.
Cloning, expression, and purification of the different orthologs. The genes encoding AfTrpB (UNIPROT ID O28672), TmTrpB (UNIPROT ID P50909) and EcTrpB (UNIPROT ID P0A879) were obtained from IDT and cloned into pET22(b)+ using Gibson Assembly. Protein expression was carried out in E. coli BL21 E. cloni Express cells (Lucigen) by inoculating 10-mL Terrific Broth (with 100 μg/mL ampicillin (TBamp)) with a single colony and incubated over night at 37° C. and 250 rpm. These overnight cultures were used to scale up to 500-mL TBamp expression cultures, which were grown by shaking at 250 rpm and 37° C. for ˜3 h or until an OD600 of 0.8 was reached. […]
The next homolog, TmTrpB, was examined. […] The variants without the T292S mutation lacked this probative absorbance peak, but the decrease at 428 nm and concomitant increase at 350 nm are consistent with a similar, though less pronounced activation.

Assay [2] has as its system Thermococcus kodakarensis TrpB, wild type (literature). The following applies: cited from earlier work.
Assay [3] addresses T2, Archaeoglobus fulgidus TrpB variant AfTrpB^0B2 (P25L, E30G, I80V, F285S, T303S, T332A), SEQ ID NO: 22 (Archaeoglobus fulgidus, UniProt O28672, I80V/L285S/P25L/P30G/T303S/T332A).
T2 sequence (O28672 with tags, fused parts or gaps P25L/P30G/I80V/L285S/T303S/T332A): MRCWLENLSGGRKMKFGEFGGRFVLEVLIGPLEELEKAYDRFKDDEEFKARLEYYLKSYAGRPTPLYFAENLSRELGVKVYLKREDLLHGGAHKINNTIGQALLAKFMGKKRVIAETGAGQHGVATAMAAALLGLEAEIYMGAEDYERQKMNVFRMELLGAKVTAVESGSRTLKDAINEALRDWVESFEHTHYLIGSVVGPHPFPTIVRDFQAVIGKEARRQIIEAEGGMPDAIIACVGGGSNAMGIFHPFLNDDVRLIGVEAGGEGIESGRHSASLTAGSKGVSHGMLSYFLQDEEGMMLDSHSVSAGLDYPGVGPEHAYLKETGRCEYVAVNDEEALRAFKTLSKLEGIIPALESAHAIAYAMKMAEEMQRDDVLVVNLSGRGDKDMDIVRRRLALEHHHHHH
Nature of the assay: Tryptophan formation from L-serine and indole, kinetics of AfTrpB^0B2.

Consider `c1ccc2[nH]ccc2c1` [indole], for which the kcat in assay [1] (75° C.) was 9.8 s⁻¹; in assay [2] it was 1.04 ± 0.03 s⁻¹; in assay [3] (60° C.), 0.51 s⁻¹. Besides, the values for the increase in kcat in assay [1] (with respect to wild type) and in assay [3] (compared to wild type) were 8 fold and 7 fold, respectively. Also, the Km in assay [2] (read-out: KM indole) is 63 ± 5 µM.
